Test results from ChEMBL document CHEMBL5576145, “Domoic Acid as a Lead for the Discovery of the First Selective Ligand for Kainate Receptor Subtype 5 (GluK5)” (J Med Chem, 2024).
Each block holds one compound with its values, some of them ahead of it.

Assays:
[1] = biological target: Glutamate receptor ionotropic, kainate 3 (Rattus norvegicus) (UniProt P42264); test: Displacement of [3H]-KA from rat GluK3 assessed as percentage of radioligand binding at 10 uM relative to control
[2] = species: Rattus norvegicus; test: Displacement of [3H]-KA from KA in rat cortical synaptosomes assessed as remaining activity at 10 uM incubated for 60 mins by TopCount microplate scintillation counting method relative to control; assay type: subcellular; settings: Cortex, Synaptosome
[3] = biological target: Glutamate NMDA receptor (Rattus norvegicus) (UniProt P35439+Q00959+Q00960+Q00961+Q62645+Q8VHN2+Q9R1M7); test: Displacement of [3H]CGP39653 from NMDA receptor in rat cortical synaptosomes assessed as remaining activity at 10 uM incubated for 60 mins by Topcount microplate scintillation counting method relative to control; assay type: subcellular; settings: Cortex, Synaptosome
[4] = biological target: T1, Glutamate receptor ionotropic, kainate 5 (Mus musculus, UniProt Q61626); test: Displacement of [3H]-kainate from mouse GluK5 expressed in Sf9 cell membrane incubated for 2 hrs by scintillation counting method; assay type: cell membranes
T1 sequence (Q61626 whole entry): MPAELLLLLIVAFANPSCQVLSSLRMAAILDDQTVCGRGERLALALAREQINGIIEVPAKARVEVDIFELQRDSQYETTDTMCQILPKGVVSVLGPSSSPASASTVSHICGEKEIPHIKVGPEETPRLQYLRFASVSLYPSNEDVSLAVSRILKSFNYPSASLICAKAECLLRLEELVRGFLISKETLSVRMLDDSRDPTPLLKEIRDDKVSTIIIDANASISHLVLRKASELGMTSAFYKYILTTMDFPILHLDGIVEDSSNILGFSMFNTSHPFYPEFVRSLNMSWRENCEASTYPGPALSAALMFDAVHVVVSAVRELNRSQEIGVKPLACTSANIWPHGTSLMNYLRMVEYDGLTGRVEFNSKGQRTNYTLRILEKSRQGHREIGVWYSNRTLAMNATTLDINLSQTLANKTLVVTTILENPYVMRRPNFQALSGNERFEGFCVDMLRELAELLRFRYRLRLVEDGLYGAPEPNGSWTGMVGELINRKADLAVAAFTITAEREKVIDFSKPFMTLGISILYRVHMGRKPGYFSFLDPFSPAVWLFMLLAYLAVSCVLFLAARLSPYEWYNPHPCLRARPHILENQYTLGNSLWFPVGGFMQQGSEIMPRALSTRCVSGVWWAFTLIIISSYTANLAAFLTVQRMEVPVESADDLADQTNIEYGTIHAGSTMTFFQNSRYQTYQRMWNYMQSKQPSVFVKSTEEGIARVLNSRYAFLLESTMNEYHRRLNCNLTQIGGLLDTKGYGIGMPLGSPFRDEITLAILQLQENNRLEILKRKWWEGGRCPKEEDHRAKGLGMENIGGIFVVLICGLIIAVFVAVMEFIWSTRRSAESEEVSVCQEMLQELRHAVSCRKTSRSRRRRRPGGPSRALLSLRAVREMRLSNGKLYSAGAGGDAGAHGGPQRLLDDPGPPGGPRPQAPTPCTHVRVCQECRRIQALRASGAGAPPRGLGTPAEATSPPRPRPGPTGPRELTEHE

[5] = biological target: Glutamate receptor ionotropic, kainate 1 (Rattus norvegicus) (UniProt P22756); test: Displacement of [3H]-NF608 from rat GluK1 assessed as percent of radioligand binding at 10 uM relative to control
[6] = biological target: Glutamate receptor ionotropic, kainate 2 (Rattus norvegicus) (UniProt P42260); test: Displacement of [3H]-KA from rat GluK2 assessed as percentage of radioligand binding at 10 uM relative to control
[7] = biological target: Glutamate receptor 4 (Rattus norvegicus) (UniProt P19493); test: Displacement of [3H]-AMPA from AMPA in rat cortical synaptosomes assessed as remaining activity at 10 uM incubated for 30 mins by TopCount microplate scintillation counting method relative to control; assay type: subcellular; settings: Cortex, Synaptosome
[8] = biological target: Glutamate receptor ionotropic, kainate 2 (Rattus norvegicus, UniProt P42260); test: Displacement of [3H]-KA from rat GluK2
[9] = biological target: Glutamate receptor ionotropic, kainate 3 (Rattus norvegicus, UniProt P42264); test: Displacement of [3H]-KA from rat GluK3
[10] = Displacement of [3H]-KA from KA in rat cortical synaptosomes incubated for 60 mins by TopCount microplate scintillation counting method; assay type: subcellular, Cortex, Synaptosome
[11] = biological target: Glutamate receptor ionotropic, kainate 1 (Rattus norvegicus, UniProt P22756); test: Displacement of [3H]-NF608 from rat GluK1
[12] = biological target: T2, Glutamate receptor ionotropic, kainate 5 (Mus musculus) (UniProt Q61626); test: Displacement of [3H]-kainate from mouse GluK5 expressed in Sf9 cell membrane assessed as remaining activity at 10 uM incubated for 2 hrs by scintillation counting method relative to control; assay type: cell membranes
T2 sequence (whole entry): T1 sequence (Q61626 whole entry)

[13] = biological target: T3, Glutamate receptor 4 (Rattus norvegicus, UniProt P19493); test: Displacement of [3H]-AMPA from AMPA in rat synaptic membrane; assay type: subcellular, Synaptosome
[14] = Displacement of [3H]-Kainic acid from KA in rat synaptic membrane; assay type: subcellular, Synaptosome
[15] = Binding affinity to KA receptor in rat synaptosomes; assay type: subcellular, Synaptosome
[16] = test system: Hippocampus; test: Reduction in CA1 spike amplitude in Wistar rat hippocampal slices after 20 mins of toxin administration; assay type: functional, tissue-based
[17] = biological target: T3, Glutamate receptor 4; test: Displacement of [3H]-AMPA from AMPA in rat brain membrane preincubated for 15 mins followed by [3H]-AMPA addition and measured after 40 mins by scintillation counting method; assay type: cell membranes
[18] = Displacement of [3H]-Kainic acid from KA in rat brain membrane preincubated for 15 mins followed by [3H]-Kainic acid addition and measured after 1 hr by scintillation counting method; assay type: cell membranes
[19] = biological target: Glutamate NMDA receptor; test: Displacement of [3H]CGP39653 from NMDA receptor in rat cortical synaptosomes incubated for 60 mins by Topcount microplate scintillation counting method; assay type: subcellular, Cortex, Synaptosome
[20] = biological target: T3, Glutamate receptor 4; test: Displacement of [3H]-AMPA from AMPA in rat cortical synaptosomes incubated for 30 mins by TopCount microplate scintillation counting method; assay type: subcellular, Cortex, Synaptosome

Sequence of Glutamate receptor ionotropic, kainate 1 (Rattus norvegicus) (P22756 whole entry): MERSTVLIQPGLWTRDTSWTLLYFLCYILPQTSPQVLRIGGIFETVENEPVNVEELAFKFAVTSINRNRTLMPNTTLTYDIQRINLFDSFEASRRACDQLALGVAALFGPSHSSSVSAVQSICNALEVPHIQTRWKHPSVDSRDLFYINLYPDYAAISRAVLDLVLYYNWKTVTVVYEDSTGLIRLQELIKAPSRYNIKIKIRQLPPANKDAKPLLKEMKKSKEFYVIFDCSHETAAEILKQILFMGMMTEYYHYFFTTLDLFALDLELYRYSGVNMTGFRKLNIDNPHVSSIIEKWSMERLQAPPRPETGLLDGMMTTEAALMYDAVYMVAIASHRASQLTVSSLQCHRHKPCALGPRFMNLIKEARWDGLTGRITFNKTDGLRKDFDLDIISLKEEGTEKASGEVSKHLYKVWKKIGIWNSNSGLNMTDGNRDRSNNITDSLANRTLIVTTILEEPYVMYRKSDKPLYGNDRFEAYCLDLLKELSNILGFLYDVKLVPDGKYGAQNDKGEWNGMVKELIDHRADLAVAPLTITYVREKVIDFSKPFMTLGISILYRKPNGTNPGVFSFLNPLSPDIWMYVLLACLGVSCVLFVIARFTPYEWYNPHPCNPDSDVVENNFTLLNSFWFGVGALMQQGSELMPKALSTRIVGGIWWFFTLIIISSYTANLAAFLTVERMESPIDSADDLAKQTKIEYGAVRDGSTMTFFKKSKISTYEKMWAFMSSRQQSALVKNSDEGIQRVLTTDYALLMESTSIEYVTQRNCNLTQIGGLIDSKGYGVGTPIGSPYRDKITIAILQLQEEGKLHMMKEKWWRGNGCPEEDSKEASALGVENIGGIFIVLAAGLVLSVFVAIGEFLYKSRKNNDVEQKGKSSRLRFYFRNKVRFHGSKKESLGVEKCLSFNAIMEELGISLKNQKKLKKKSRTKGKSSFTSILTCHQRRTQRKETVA
Sequence of Glutamate receptor ionotropic, kainate 3 (Rattus norvegicus) (P42264 whole entry): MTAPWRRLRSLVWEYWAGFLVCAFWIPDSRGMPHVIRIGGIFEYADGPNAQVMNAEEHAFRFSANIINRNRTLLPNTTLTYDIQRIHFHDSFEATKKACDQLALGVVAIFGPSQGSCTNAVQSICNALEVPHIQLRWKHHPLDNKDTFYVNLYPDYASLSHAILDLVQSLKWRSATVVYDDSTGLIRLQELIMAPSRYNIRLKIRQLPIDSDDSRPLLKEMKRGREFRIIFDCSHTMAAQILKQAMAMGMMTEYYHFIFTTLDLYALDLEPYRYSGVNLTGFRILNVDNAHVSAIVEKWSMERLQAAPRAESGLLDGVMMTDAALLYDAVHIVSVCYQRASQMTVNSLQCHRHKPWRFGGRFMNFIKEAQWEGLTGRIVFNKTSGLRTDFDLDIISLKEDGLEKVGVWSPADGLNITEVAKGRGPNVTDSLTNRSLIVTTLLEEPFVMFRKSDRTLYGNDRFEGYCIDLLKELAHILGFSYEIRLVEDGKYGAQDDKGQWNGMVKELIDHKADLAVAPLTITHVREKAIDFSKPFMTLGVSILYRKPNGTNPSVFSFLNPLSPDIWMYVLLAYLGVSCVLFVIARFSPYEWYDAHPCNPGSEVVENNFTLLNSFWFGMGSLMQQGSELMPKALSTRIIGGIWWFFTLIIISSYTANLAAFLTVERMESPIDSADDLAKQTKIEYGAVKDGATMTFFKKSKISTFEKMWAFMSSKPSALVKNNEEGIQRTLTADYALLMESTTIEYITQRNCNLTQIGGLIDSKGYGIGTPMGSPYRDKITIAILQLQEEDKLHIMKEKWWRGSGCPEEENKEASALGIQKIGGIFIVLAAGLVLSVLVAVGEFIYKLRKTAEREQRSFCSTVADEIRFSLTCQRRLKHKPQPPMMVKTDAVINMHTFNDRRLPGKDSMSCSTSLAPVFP
Sequence of Glutamate receptor ionotropic, kainate 2 (Rattus norvegicus) (P42260 whole entry): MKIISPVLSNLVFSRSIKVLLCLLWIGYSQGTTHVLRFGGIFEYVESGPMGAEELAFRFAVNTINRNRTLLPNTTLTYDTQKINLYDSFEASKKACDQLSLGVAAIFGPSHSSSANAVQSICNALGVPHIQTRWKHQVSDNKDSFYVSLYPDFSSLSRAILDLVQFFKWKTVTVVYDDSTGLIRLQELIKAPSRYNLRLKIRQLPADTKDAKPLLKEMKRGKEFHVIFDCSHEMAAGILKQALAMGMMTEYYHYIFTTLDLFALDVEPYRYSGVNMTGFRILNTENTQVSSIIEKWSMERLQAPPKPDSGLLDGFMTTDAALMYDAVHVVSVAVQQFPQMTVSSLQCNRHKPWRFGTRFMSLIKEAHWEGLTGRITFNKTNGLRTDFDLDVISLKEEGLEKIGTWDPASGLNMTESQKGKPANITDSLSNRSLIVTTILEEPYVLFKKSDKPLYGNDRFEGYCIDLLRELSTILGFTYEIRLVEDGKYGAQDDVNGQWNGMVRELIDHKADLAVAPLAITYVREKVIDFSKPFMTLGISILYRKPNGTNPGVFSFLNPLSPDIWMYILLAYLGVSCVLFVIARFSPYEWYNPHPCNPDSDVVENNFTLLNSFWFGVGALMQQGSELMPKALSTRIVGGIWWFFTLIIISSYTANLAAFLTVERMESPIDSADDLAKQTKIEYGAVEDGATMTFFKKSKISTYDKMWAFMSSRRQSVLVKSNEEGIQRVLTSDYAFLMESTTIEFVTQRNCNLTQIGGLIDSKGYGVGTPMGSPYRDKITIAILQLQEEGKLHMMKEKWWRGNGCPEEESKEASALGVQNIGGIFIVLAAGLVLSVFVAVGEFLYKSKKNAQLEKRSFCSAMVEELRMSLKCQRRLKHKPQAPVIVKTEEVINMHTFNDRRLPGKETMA
Sequence of Glutamate receptor 4 (Rattus norvegicus) (P19493 whole entry): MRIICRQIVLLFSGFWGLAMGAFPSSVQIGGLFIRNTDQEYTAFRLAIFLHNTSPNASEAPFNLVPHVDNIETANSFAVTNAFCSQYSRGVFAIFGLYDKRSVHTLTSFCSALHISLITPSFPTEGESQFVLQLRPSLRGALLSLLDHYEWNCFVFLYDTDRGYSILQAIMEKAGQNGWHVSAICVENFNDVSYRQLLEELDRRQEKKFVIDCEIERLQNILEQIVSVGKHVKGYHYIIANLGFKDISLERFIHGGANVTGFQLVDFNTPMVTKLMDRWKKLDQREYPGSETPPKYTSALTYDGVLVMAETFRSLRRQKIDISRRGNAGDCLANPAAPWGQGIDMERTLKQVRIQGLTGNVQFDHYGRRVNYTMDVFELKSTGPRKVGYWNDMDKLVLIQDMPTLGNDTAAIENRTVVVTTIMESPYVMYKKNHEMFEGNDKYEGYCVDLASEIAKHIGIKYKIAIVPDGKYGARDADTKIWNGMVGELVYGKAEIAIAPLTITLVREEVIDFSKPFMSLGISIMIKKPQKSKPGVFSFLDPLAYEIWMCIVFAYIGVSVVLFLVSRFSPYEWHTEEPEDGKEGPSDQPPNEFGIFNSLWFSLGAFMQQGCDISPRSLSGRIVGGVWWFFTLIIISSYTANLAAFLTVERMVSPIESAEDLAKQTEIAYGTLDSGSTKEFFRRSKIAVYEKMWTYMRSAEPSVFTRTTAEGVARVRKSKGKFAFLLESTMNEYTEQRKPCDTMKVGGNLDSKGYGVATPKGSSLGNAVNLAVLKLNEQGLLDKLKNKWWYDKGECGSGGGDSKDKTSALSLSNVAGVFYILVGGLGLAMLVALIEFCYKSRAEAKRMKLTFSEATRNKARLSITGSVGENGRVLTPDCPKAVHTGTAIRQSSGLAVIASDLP
T3 sequence (P19493 whole entry): as above
Sequence of Glutamate receptor ionotropic, kainate 1 (P22756 whole entry): as the sequence (P22756 whole entry) above
Sequence of Glutamate receptor ionotropic, kainate 3 (P42264 whole entry): as the sequence (P42264 whole entry) above
Sequence of Glutamate receptor ionotropic, kainate 2 (P42260 whole entry): as the sequence (P42260 whole entry) above

Compound: O=C(O)C[C@@H]1[C@@H](C(=O)O)NC[C@@H]1n1nncc1Cc1ccccc1
Activity [1]: 94%
Activity [2]: 79%
Activity [3]: 87%
Ki [4]: 11100 nM
Activity [5]: 99%
Activity [6]: 92%
Activity [7]: 86%

Compound: O=C(O)CCCc1cnnn1[C@H]1CN[C@H](C(=O)O)[C@H]1CC(=O)O
Ki [8]: 7790 nM
Ki [9]: 6100 nM
IC50 [10]: 2300 nM
Activity [3]: 90%
Ki [11]: 10800 nM
Ki [4]: 483 nM
Activity [7]: 86%

Compound: O=C(O)C[C@@H]1[C@@H](C(=O)O)NC[C@@H]1c1ccc(C(=O)O)[nH]c1=O
IC50 [13]: 60 nM
IC50 [14]: 330 nM

Compound: COc1cccc(-c2cnnn2[C@H]2CN[C@H](C(=O)O)[C@H]2CC(=O)O)c1
Activity [1]: 74%
Ki [4]: 1020 nM
Activity [5]: 88%
Activity [6]: 89%

Compound: C=C(CC/C=C(\C)C(=O)O)[C@H]1CN[C@H](C(=O)O)[C@H]1CC(=O)O
EC50 [16]: 3710 nM

Compound: O=C(O)C[C@@H]1[C@@H](C(=O)O)NC[C@@H]1n1nncc1-c1ccc(F)cc1F
Activity [1]: 90%
Ki [4]: 5350 nM
Activity [5]: 96%
Activity [6]: 73%

Compound: C/C(=C/C=C/[C@H](C)C(=O)O)[C@H]1CN[C@H](C(=O)O)[C@H]1CC(=O)O
IC50 [17]: 5700 nM
IC50 [18]: 28 nM

Compound: O=C(O)C[C@@H]1[C@@H](C(=O)O)NC[C@@H]1n1nncc1CN1CCS(=O)(=O)CC1
Activity [12]: 94%
Activity [1]: 91%
Activity [5]: 97%
Activity [6]: 80%

Compound: C/C(=C/CC[C@@H](C)C(=O)O)[C@H]1CN[C@H](C(=O)O)[C@H]1CC(=O)O
IC50 [17]: 3600 nM
IC50 [18]: 9 nM

Compound: O=C(O)CCc1cn([C@H]2CN[C@H](C(=O)O)[C@H]2CC(=O)O)nn1
Ki [19]: > 100000 nM
Ki [8]: > 100000 nM
IC50 [20]: > 100000 nM
Ki [9]: > 100000 nM
IC50 [10]: > 100000 nM
Ki [11]: > 100000 nM

Compound: O=C(O)C[C@@H]1[C@@H](C(=O)O)NC[C@@H]1n1nncc1-c1ccc(C(F)(F)F)cc1
Activity [12]: 62%
Activity [1]: 85%
Activity [5]: 95%
Activity [6]: 103%

The remaining lines, values ahead:

Activity [12]: 85%
Activity [1]: 81%
Activity [2]: 76%
Activity [3]: 92%
Activity [5]: 95%
Activity [6]: 79%
Activity [7]: 100%
Compound: NCc1cnnn1[C@H]1CN[C@H](C(=O)O)[C@H]1CC(=O)O

IC50 [13]: 130 nM
IC50 [14]: 58 nM
Compound: O=C(O)C[C@@H]1[C@@H](C(=O)O)NC[C@@H]1c1ccccc1O

IC50 [15]: 5 nM
Compound: Nc1nc([C@H]2CN[C@H](C(=O)O)[C@H]2CC(=O)O)cs1

IC50 [15]: 6 nM
Compound: Cc1nc([C@H]2CN[C@H](C(=O)O)[C@H]2CC(=O)O)cs1

Activity [1]: 58%
Ki [4]: 1760 nM
Activity [5]: 60%
Activity [6]: 76%
Compound: O=C(O)C[C@@H]1[C@@H](C(=O)O)NC[C@@H]1n1nncc1-c1cccc(F)c1
